The values below come from patent publication US20190183890A1, “METHODS AND COMPOSITIONS FOR PROMOTING HAIR GROWTH” (Rophe Pharma, Inc., priority 2016, published 2019).

Assay [1] has as its system androgenic alopecia.
Assay [2] relates to androgenic alopecia. The following applies: topical.

The structures appear in SMILES notation.

As for `Cl.NNc1nncc2ccccc12` [hydralazine, 1-hydrazinophthalazine monohydrochloride], in the assay with androgenic alopecia [1] (12 men aged 33-69 years, 150, then 300, then 600 mg/100 ml, after 6-8 weeks of treatment), the “men with visible enhancement in hair count and hair thickness” value is 11 out of the 12. The “treatment time to visible enhancement in hair count and hair thickness” value in the assay with androgenic alopecia [1] (12 men, 150 to 600 mg/100 ml) is given as 6-8 weeks. Also, the “onset of effect compared with Rogaine” value in the assay with androgenic alopecia [1] (12 men, visible enhancement after 6-8 weeks) is given as “much faster onset of effect than Rogaine”. Also, the hair regrowth entry in the assay with androgenic alopecia [2] (0.2% solution in glycol, alcohol and water, over 200 patients, mostly androgenic alopecia) is “hair grew back”. In the assay with androgenic alopecia [2] (0.2% solution, treatment has to be continued every month to sustain the hair), the “time until hair growth visible” value is “visible after the first month”.
